{"source": "patent US20120190690A1", "about": "“E[…] THE TREATMENT OF WEIGHT DISORDERS” (MERZ PHARMA GmbH & CO. KGaA, priority 2009, published 2012)", "key": {"[1]": {"molecular_target": "T1, human serotonin 5-HT1a receptor (Homo sapiens, UniProt P08908)", "T1 construct": "expressed in transfected cells; host or cells: CHO-K1", "T1 sequence (P08908 1-422)": "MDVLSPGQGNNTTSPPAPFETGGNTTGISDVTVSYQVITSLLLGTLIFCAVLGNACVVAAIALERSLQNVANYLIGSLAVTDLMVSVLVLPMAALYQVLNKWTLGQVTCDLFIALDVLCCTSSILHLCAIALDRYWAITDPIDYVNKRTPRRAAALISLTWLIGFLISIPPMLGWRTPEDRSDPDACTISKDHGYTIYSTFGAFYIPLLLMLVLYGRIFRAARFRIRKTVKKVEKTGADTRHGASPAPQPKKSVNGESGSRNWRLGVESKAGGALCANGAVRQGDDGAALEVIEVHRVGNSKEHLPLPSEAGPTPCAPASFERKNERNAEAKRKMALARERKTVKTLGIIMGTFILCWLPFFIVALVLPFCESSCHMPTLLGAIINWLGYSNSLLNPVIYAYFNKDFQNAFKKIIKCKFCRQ", "experiment": "GTPγS assay, recombinant CHO-K1 membranes, agonist testing", "format": "biochemical", "details": "human recombinant cell line; FIG. 1", "experimental": "(§1) Eltoprazine was tested for activity on the human serotonin 5-HT1a and 5-HT1b receptors using a GTPγS assay. Recombinant membranes obtained from CHO-K1 cells expressing either the 5-HT1a or 5-HT1b receptors were mixed with GDP (volume:volume) and incubated for at least 15 min on ice. In parallel, GTPγ[35S] was mixed with the beads (volume:volume) just before starting the reaction. The following reagents were successively added in the wells of an Optiplate (Perkin Elmer): 50 μl of test compound, 20 μl of the membranes:GDP mix, 10 μl of assay buffer (for agonist testing) and 20 μl of the GTPγ[35S]:beads mix. The plates were covered with a top seal, shaken on an orbital shaker for 2 min, and then incubated for 1 h at room temperature. Then the plates were centrifuged for 10 min at 2000 rpm, incubated at room temperature 1 h and counted for 1 min/well with a PerkinElmer TopCount reader."}, "[2]": {"molecular_target": "T2, human serotonin 5-HT1b receptor (Homo sapiens, UniProt P28222)", "T2 construct": "expressed in transfected cells; host or cells: CHO-K1", "T2 sequence (P28222 whole entry)": "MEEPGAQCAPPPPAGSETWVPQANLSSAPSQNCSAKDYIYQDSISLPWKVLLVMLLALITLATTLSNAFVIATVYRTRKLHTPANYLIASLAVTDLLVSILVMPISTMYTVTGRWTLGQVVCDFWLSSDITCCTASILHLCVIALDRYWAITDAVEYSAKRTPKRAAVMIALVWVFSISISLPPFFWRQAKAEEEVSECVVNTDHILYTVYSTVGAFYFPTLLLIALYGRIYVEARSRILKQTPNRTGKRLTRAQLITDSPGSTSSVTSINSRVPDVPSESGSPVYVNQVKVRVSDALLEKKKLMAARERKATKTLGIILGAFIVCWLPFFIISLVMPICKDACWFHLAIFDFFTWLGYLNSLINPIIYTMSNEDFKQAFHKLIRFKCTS", "experiment": "GTPγS assay, recombinant CHO-K1 membranes, agonist testing", "format": "biochemical", "details": "human recombinant cell line; FIG. 1", "experimental": "as §1"}, "[3]": {"molecular_target": "T3, 5-HT2a recombinant receptor (Homo sapiens, UniProt P28223)", "T3 construct": "expressed in transfected cells", "T3 sequence (P28223 whole entry)": "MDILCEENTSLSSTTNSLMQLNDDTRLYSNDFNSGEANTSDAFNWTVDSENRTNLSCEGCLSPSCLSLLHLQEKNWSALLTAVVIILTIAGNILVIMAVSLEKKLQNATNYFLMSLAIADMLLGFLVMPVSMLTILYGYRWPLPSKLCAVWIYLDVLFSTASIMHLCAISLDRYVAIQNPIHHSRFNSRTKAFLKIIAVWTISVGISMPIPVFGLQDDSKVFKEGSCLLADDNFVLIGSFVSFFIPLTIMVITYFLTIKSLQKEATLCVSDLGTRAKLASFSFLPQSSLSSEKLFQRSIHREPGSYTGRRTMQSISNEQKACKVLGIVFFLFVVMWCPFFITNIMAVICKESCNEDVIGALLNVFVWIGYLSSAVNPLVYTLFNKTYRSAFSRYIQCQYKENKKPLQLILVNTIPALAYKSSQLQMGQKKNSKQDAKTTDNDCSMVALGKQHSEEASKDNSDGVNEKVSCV", "experiment": "Aequorin cell line functional assay, agonist testing", "format": "cell-based", "details": "FIG. 1", "experimental": "(§2) Aequorin cell lines expressing the 5-HT2a, 5-HT2b and 5-HT2c non-edited (ne) recombinant receptors were used to evaluate the functional activity of eltoprazine. Aequorin cells grown 18 h prior to the test in media without antibiotics were detached by gentle flushing with PBS-EDTA (5 mM EDTA), recovered by centrifugation and resuspended in “assay buffer” (DMEM/HAM's F12 with HEPES+0.1% BSA protease free). Cells were incubated at room temperature for at least 4 h with Coelenterazine h (Molecular Probes). The reference agonist used were 5-HT and α-methyl-5-HT. For agonist testing, 50 μl of cell suspension were injected on 50 μl of test compound or reference agonist plated in a 96-well plate. The resulting emission of light was recorded using the Hamamatsu Functional Drug Screening System 6000 (FDSS 6000)."}, "[4]": {"molecular_target": "T4, 5-HT2c non-edited (ne) recombinant receptor (Homo sapiens, UniProt P28335)", "T4 construct": "expressed in transfected cells", "T4 sequence (P28335 33-458)": "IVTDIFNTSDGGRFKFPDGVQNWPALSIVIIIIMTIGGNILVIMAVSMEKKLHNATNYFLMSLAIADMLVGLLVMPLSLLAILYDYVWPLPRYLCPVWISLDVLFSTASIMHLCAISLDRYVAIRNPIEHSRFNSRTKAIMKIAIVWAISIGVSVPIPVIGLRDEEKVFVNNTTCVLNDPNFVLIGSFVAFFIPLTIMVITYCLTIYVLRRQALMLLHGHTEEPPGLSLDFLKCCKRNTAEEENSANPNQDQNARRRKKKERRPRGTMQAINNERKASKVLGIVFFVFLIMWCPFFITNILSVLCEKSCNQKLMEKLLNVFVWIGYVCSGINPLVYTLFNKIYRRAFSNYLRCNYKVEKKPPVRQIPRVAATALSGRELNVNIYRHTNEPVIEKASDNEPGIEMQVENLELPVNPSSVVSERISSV", "experiment": "Aequorin cell line functional assay, agonist testing", "format": "cell-based", "details": "FIG. 1", "experimental": "as §2"}, "[5]": {"tested_on": "6-OHDA-lesioned rat model of Parkinson's disease", "experiment": "L-DOPA induced dyskinesia (AIM scores) in unilaterally 6-OHDA-lesioned rats", "format": "in vivo", "details": "eltoprazine hydrochloride 0.08, 0.3, 1.25 and 5 mg/kg s.c. 30 min before test; after 21 days L-DOPA 6 mg/kg + benserazide 15 mg/kg i.p.; FIG. 2", "experimental": "(§3) Male Sprague Dawley rats (Elevage Janvier, Le Genest Saint Isle, France) weighing between 220 and 250 g at the beginning of the study are used in these experiments. They are housed under a 12 h light/dark cycle with free access to standard pelleted food and tap water. Animal treatment and experimental procedures are approved by local ethical committees (Regierungspräsidium Darmstadt; Germany).\n(§4) Dopamine-denervating lesions are performed on rats anaesthetized with a 5:1 mixture of ketamine and xylazine (1 ml/kg, i.p.). […] The animals' turning behaviour is recorded in an automated rotometer (TSE Rotameter System, TSE-Systems GmbH, Bad Homburg, Germany) over a 90 min period after the intraperitoneal (i.p.) injection of 2.5 mg/kg dexamphetamine sulphate dissolved in saline. […]\nIn order to evaluate the severity of LID, AIMs are recorded every second day as described by Cenci et al. (1998). […] Each rat is scored on a severity scale from 0 to 4 based on its frequency and persistence (1=occasional; 2=frequent; 3=continuous but interrupted by sensory distraction; 4=continuous, severe and not interrupted by sensory distraction). […]"}, "[6]": {"tested_on": "6-OHDA-lesioned rat model of Parkinson's disease", "experiment": "Turning behaviour induced by high dose of L-DOPA in 6-OHDA-lesioned rats", "format": "in vivo", "details": "eltoprazine 0.3, 1.25 and 5 mg/kg 30 min before test; 180 min rotometer; FIG. 3", "experimental": "as §3, §4\nIn order to evaluate the effect of eltoprazine on parkinsonian symptoms and its interaction with L-DOPA, rotational behaviour is evaluated. The numbers of ipsilateral and contralateral turns are recorded in an automated rotometer (TSE Rotameter System, TSE-Systems GmbH, Bad Homburg, Germany) over a period of 180 min. […]"}, "[7]": {"tested_on": "Sprague-Dawley rats", "experiment": "Effect of eltoprazine on weight gain and food intake of rats", "format": "in vivo, rat", "details": "vs vehicle", "experimental": "Experimentally naive adult male Sprague-Dawley rats (250-300 g; Janvier, France) were housed in groups of four per cage. Colony room temperature and humidity were maintained respectively at 20±1° C. and 60±3%. Food and water were available ad libitum and the animals were kept under an alternating 12 h/12 h day-night cycle (lights on at 07.00) for at least 6 days before the experiments were started. All experiments were conducted during the light period of the day-night cycle.\n(§5) Eltoprazine hydrochloride was dissolved in sterile water. Animals were treated for 2 weeks using Alzet osmotic pumps (2ML2) implanted under the skin on the back delivering constantly eltoprazine solution or using b.i.d. s.c. Treatment. During the treatment, the rats were kept in single cages.\n(§6) Group 1: vehicle (osmotic pump; saline) Group 2: eltoprazine 8 mg/kg/day (osmotic pump; in distilled water) Group 3: vehicle (2 daily injections—9 am & 3 pm—s.c.; in distilled water) Group 4: eltoprazine 1 mg/kg (2 daily injections—9 am & 3 pm—s.c.; in distilled water)\nGroups 3 and 4 were NOT injected at the weekend, and the weight and food intake were not recorded at the weekend.\nWeight of animals and food intake were measured daily for two weeks (with exception of weekends)."}, "[8]": {"experiment": "Plasma levels in the rat weight study", "format": "in vivo", "details": "N=8", "experimental": "as §5, §6"}, "[9]": {"tested_on": "5-HT1a receptor", "details": "Schipper et al. 1990; cited from earlier work"}, "[10]": {"tested_on": "5-HT1b receptor", "details": "Schipper et al. 1990; cited from earlier work"}, "[11]": {"tested_on": "5-HT2c (initially designated 5-HT1c)", "details": "Schipper et al. 1990; cited from earlier work"}, "[12]": {"tested_on": "patients", "details": "clinical trials in aggressive behaviour (de Koning et al. 1994); cited from earlier work"}}, "note": "Entries after “also recorded” stand apart in the source; their conditions may differ."}
{"molecule": "c1cc2c(c(N3CCNCC3)c1)OCCO2", "note": "[eltoprazine, 1-(2,3-dihydro-1,4-benzodioxin-8-yl)piperazine]", "values": [{"measurement": "functional activity at 5-HT1a receptor", "setting": "[1]", "result": "partial agonistic action"}, {"measurement": "functional activity at 5-HT1b receptor", "setting": "[2]", "result": "partial agonistic action"}, {"measurement": "functional activity at 5-HT2a receptor", "setting": "[3]", "result": "full agonist"}, {"measurement": "functional activity at 5-HT2c receptor", "setting": "[4]", "result": "full agonist"}, {"measurement": "effect on AIM scores", "setting": "[5]", "result": "significantly reverses, in a dose-dependent manner"}, {"measurement": "effect on turning behaviour induced by L-DOPA (antiparkinsonian effect of L-DOPA)", "setting": "[6]", "result": "does not interfere with the antiparkinsonian effect of L-DOPA"}, {"measurement": "weight gain", "setting": "[7]; 1 mg/kg s.c. b.i.d. injections, 2 weeks (not at weekends), FIG. 5A", "result": "delay in weight gain; also recorded: significant effect of treatment"}, {"measurement": "food intake", "setting": "[7]; 1 mg/kg s.c. b.i.d. injections, 2 weeks (not at weekends), FIG. 5B", "result": "reduced food intake; also recorded: significant effect of treatment"}, {"measurement": "weight gain", "setting": "[7]; osmotic minipump 8 mg/kg/day, 2 weeks, FIG. 4A", "result": "delay in weight gain; also recorded: significant effect of treatment"}, {"measurement": "food intake", "setting": "[7]; osmotic minipump 8 mg/kg/day, 2 weeks, FIG. 4B", "result": "reduced food intake; also recorded: significant effect of treatment"}, {"measurement": "plasma levels", "setting": "[8]; 1 mg/kg s.c. b.i.d. injections", "result": "approx. 55 ng/ml"}, {"measurement": "plasma levels (range)", "setting": "[8]; 1 mg/kg s.c. b.i.d. injections", "result": "48 to 65", "unit": "ng/mL"}, {"measurement": "plasma levels", "setting": "[8]; osmotic minipump 8 mg/kg/day", "result": "approx. 110 ng/ml"}, {"measurement": "plasma levels (range)", "setting": "[8]; osmotic minipump 8 mg/kg/day", "result": "86 to 143", "unit": "ng/mL"}, {"measurement": "pharmacological action on 5-HT1a receptor", "setting": "[9]", "result": "agonistic effect"}, {"measurement": "pharmacological action on 5-HT1b receptor", "setting": "[10]", "result": "agonistic effect"}, {"measurement": "effect on 5-HT2c", "setting": "[11]", "result": "antagonistic"}, {"measurement": "clinical safety", "setting": "[12]", "result": "clinically safe"}]}
